Experimental data reported in patent US10905757B2, “Cross-reactive T cell epitopes of HIV, SIV, and FIV for vaccines in humans and cats” (priority 2012, dated 2021).
Entries after “also recorded” stand apart in the source; their conditions may differ. Ends that are not written are not given here.

Experiments:
[1] = tested on: T cells from HIV− subjects; test: CFSE-proliferation, CD8+ / CD4+ T cells from HIV− control subjects; format: cell-based, human
Description: Flow cytometry (FACS) for carboxyfluoresein diacetate succinimide ester (CFSE)-proliferation and intracellular cytotoxin staining (ICS). The CFSE-proliferation analysis was performed on PBMC according to the manufacturer's protocol (Invitrogen, Carlsbad, Calif.) and processed as previously described (Lichterfeld et al. (2004)). Modifications consisted of using 2.0-5.0×10^5 CFSE-labeled cells stimulated for 5 days (37° C., 5% CO^2) with 30 μg/well of total peptides in a pool (15 μg/well for individual peptide, Table 10) or 5 μg/mL PHA in AIM V medium containing 25 μg/mL of gentamycin and 10% heat-inactivated human serum. Subsequently these cells were harvested and labeled with the LIVE/DEAD fixable yellow dye (Invitrogen) and then treated 5 min with anti-CD16/CD32 antibody (Biolegend, San Diego, Calif.) for blocking non-specific binding before phenotype-specific antibodies. The following antibodies were used for the CFSE-proliferation analysis: anti-CD4 APC, anti-CD3 APC-H7, and anti-CD8 Pacific Blue (BD Biosciences, San Jose, Calif.).
(§1) In both analyses, 1.0-2.0×10^4 cells were fixed in phosphate-buffered saline (PBS) containing 2% paraformaldehyde and analyzed on BD LSRII using […] Software (BD Biosciences), with a positive threshold of 3% CFSE^low for CFSE-proliferation and 1% T cells expressing cytotoxin for ICS. The final value for each subject was derived after subtraction of the subject's medium control and the average value of peptide-stimulated cells from uninfected control subjects.
(§2) Flow cytometry (FACS) for measuring CFSE-proliferation and intracellular cytokine staining (ICS). Carboxyfluorescein diacetate succinimide ester (CFSE)-proliferation analysis was performed according to the manufacturer's protocol (Invitrogen) and processed as previously described (Lichterfeld et al. 2004) using the following modification: 2.5-5.0×10^5 CFSE-labeled PBMC stimulated for 4-5 days (37° C., 5% CO2) with 15-30 μg of peptides in culture media (AIM V medium, 25 μg/mL gentamycin, and 10% heat-inactivated fetal bovine serum). The ICS analysis was performed as previously described (Horton et al. 2007; Pattacini et al. 2012).
(§3) The antibodies used for the proliferation analysis consisted of anti-CD4 allophycocyanin (APC) anti-CD3 APC-H7, and anti-CD8 Pacific Blue, and those for ICS were anti-CD3 APC-H7, anti-CD4 BD Horizon V450, anti-CD8 FITC, anti-granzyme B (GrzB) Alexa 700, anti-granzyme A (GrzA) PE (BD Biosciences, Cat #555349, 560176, 558207, 560345, 555366, 560213, 558904), and anti-perforin PerCP (Abcam, Cat #ab86319). Both analyses were performed with BD LSRII and […]™ Software (BD Biosciences), using a positive threshold of >1% CFSE^low for CFSE-proliferation except for ICS studies with threshold of >0.1% T cells expressing cytotoxin. The final value for each subject was derived after subtracting the result of each HIV^+ subject with the media control followed by subtraction with the average response of the media-control subtracted HIV^− subjects.

[2] = tested on: CD4+ or CD8+ T cells from HIV+ subjects; test: Intracellular cytotoxin staining (ICS), CD4+ or CD8+ T cells from HIV+ responders; format: cell-based, human; details: for cytotoxin and CD107a expression in CD4+ and CD8+ T cells (in words): p24 peptides; for Cytotoxins: responders to Fp9 or Fp14 peptide pools
Description: Briefly, 1×10^6PBMCs (freshly isolated) are stimulated with 20 μg of peptides for 6 hours in a total volume of 200 μL in a 96-well plate in presence of Golgi transport inhibitor (37° C., 5% CO2). […] Cells were stained with the LIVE/DEAD® fixable yellow dye (Invitrogen, Eugene, Oreg.). […] The flow cytometry data is collected using BD LSRII and analyzed with the FACS DIVA software.
The cells were subsequently fixed and permeabilized with Cytofix/Cytoperm solution (BD Biosciences) before reaction with anti-cytotoxin antibodies. The antibodies consisted of anti-CD3 APC-H7, anti-CD4 BD Horizon V450, and anti-CD8 FITC followed by anti-GrzB Alexa 700 and anti-GrzA PE (all from BD Biosciences), and anti-perforin PerCP (Abcam, Boston, Mass.).
as §1
Flow cytometry (FACS) for measuring CFSE-proliferation and intracellular cytokine staining (ICS).
Both analyses were performed with BD LSRII and […]™ Software (BD Biosciences), using a positive threshold of >1% CFSE^low for CFSE-proliferation except for ICS studies with threshold of >0.1% T cells expressing cytotoxin.

[3] = tested on: CD8+ T cells from HIV+ subjects; test: Intracellular cytotoxin staining (ICS: perforin, GrzA, GrzB, CD107a), CD8+ T cells from HIV+ subjects; format: cell-based, human; design: key to CD8^+ T-cell cytotoxins (8C): positive (+); negative (−) response; inhibitory (↓); not done (n); details: for CD8^+ T-cell cytotoxins (8C): HIV^+ subjects compared to HIV^− control group; for HIV+ subjects whose CD8+ T cells responded with one or more cytotoxins: five HIV+ subjects, individual 13-15mer peptides
Description: (§4) Briefly, 1×10^6PBMCs (freshly isolated) are stimulated with 20 μg of peptides for 6 hours in a total volume of 200 μL in a 96-well plate in presence of Golgi transport inhibitor (37° C., 5% CO2). The cells are processed as previously described (Horton et al. (2007)). Cells were stained with the LIVE/DEAD® fixable yellow dye (Invitrogen, Eugene, Oreg.). The monoclonal antibodies fluorochome-conjugated to human cytokines used are: APC-H7 to CD3 (clone SK7); BD Horizon V450 to CD4 (clone RPA-T4); Qdot to CD8 (clone 3B5); PE-cy7 to IFN-γ (clone 4S.B3); APC to IL-2 (clone MQ1-17H12) PerCP to perforin (clone B-D48); Alexa F1.700 to granzyme-B (clone GB11) and PE to granzyme-A (clone CB9). The flow cytometry data is collected using BD LSRII and analyzed with the FACS DIVA software.
(§5) The ICS analysis (Horton et al. (2007)) involved stimulating 0.5-1.0×10^6 freshly isolated PBMC for 6 h with the same peptide stimulant and culture conditions as the proliferation analysis in the presence of 1 μg/mL of Golgi transport inhibitor and monensin followed by labeling with LIVE/DEAD fixable yellow dye and then treatment with anti-CD16/CD32 antibody and T-cell phenotypic antibodies. The cells were subsequently fixed and permeabilized with Cytofix/Cytoperm solution (BD Biosciences) before reaction with anti-cytotoxin antibodies. The antibodies consisted of anti-CD3 APC-H7, anti-CD4 BD Horizon V450, and anti-CD8 FITC followed by anti-GrzB Alexa 700 and anti-GrzA PE (all from BD Biosciences), and anti-perforin PerCP (Abcam, Boston, Mass.).
as §1, §2, §3

[4] = tested on: CD4+ T cells from HIV+ subjects; test: Intracellular cytotoxin staining (ICS), CD4+ T cells from HIV+ subjects; format: cell-based, human; design: key to CD4^+ T-cell cytotoxins (4C): positive (+); negative (−) response; inhibitory (↓); not done (n); details: for CD4^+ T-cell cytotoxins (4C): HIV^+ subjects compared to HIV^− control group; for cytotoxin expression in CD4+ T cells (in words): ST/ART− subjects
Description: as §4, §5, §1, §2, §3

[5] = tested on: FIV infection of naïve cat PBMC; test: In vitro FIV enhancing/inhibitory (E/I) assay in PBMC from naïve SPF cats (RT titer); format: cell-based; details: for effect on in vitro FIV infection: PBMC from naïve cats
Description: FIG. 35. FIV-enhancing versus inhibitory epitopes on peptides and MAPs used in pilot MAP Study. […] Abbreviation: MAP1 plus MAP2 mix (MAP1+2).
FIG. 36A and 36B. FIV/HIV-1 enhancing versus inhibitory epitopes. […] Four epitope peptides were tested in an in vivo efficacy study with prototype vaccine prime and MAP boosts against pathogenic FIV challenge (see MAP section).
To test the possibility that Fp4-3 peptide may be enhancing FIV infection, we performed an in vitro FIV enhancing/inhibitory analysis with all MAP peptides and immunogens. […]. Since MAP2 consisted of peptides FRT3-3 and FRT3-4 with a natural overlap (FIG. 34), such overlap may have blocked the enhancing activity of peptide FRT3-3 while allowing the inhibitory activity of peptide FRT3-4. […] Moreover, none of the MAP vaccinated cats had early detection or enhancement in viral load compared to the control cats. Perhaps, the strong immunity generated by the MAP2 has blocked the enhancing activity of the MAP1 when boosted together (Group 1, Table 3). To test this possibility, in vitro study is currently undergoing to evaluate whether MAP2 can block FIV enhancing activity of MAP1. Furthermore, more cats will be vaccinated with MAP 1b and MAP2 to determine the levels of cytotoxins generated to peptides Fp14-1, FRT3-3 and FRT3-4. Since these peptides have induced CTL-associated cytotoxin expression in T cells from HIV^+ subjects (FIGS. 31A-31B; FIG. 5 in (Sanou et al. 2013)), these EC peptides may also mediate their in vivo effects by inducing anti-FIV specific CTL activity.
However, only peptide Fp4-3 correlated with the in vitro enhancement induced by MAP1. Since the in vitro E/I assay uses PBMC from naïve specific pathogen free (SPF) cats, it is unlikely that the in vitro stimulation of anti-FIV CTLs occurred in the culture and eliminated the infected cells. More likely, these enhancing or inhibitory peptides induced cytokines (enhancement: IFNγ, TNFα, GM-CSF; inhibition: IFNα, IL10), chemokines (inhibition: MIP1α, MIP1β, SDF-1, RANTES), or cellular restriction factors (inhibition: Trim5α, APOBEC3g) that either enhanced or inhibited FIV/HIV-1 infection. […] IFNγ is produced during inflammatory responses to HIV-1 infection (Ipp and Zemlin 2013). Thus, high levels of antiviral cellular immune responses are needed while minimizing both non-specific and viral-specific activation of CD4^+ T cells which can enhance viral replication (Lane 2010). Removal of the enhancing epitopes on FIV and HIV-1 immunogens will be critical to produce an effective HIV-1 vaccine. To accomplish this goal, we will design a vaccine based on antiviral epitopes directed at inducing viral-specific CD4^+ CTLs, CD8^+ CTLs and polyfunctional T cells, and identifying viral enhancing epitopes to remove from vaccine candidates.

| Substance | T-cell proliferation in HIV− subjects (in words) [1] | cytotoxin expression / CTL-associated activity in CD8+ T cells (in words) [3] | cytotoxin expression in CD4+ T cells (in words) [4] | Cytotoxins [2] | further results |
| --- | --- | --- | --- | --- | --- |
| VKNWMTETL [Hp15-2/3a] | did not stimulate |  |  |  | cytotoxin and CD107a expression in CD4+ and CD8+ T cells (in words) [2]: high cytotoxin and CD107a expression; also recorded: induced expression in both |
| VKNWMTETLLVQNAN [Hp15-3] | inducers |  |  |  | CD8^+ T-cell cytotoxins (8C) [3]: +; CD4^+ T-cell cytotoxins (4C) [4]: +; cytotoxin and CD107a expression in CD4+ and CD8+ T cells (in words) [2]: high levels and frequency of cytotoxin responses |
| ARMQCRAWY [Fp9-3d] | not | more cytotoxins | very little cytotoxin expression | Moderate Cytotoxins (only CD8) |  |
| RMQCRAWYL [Fp9-3c] | not |  | very little cytotoxin expression | Extremely Low Cytotoxins |  |
| FAPARMQCRAWYLEA [Fp9-3] | proliferated | more cytotoxins; also recorded: highest frequency of responders | very little cytotoxin expression | High Cytotoxins (The cytotoxin result is considered high when four or five subjects express one or more cytotoxins in the CD8^+ T cells) | HIV+ subjects whose CD8+ T cells responded with one or more cytotoxins [3]: up to four |
| KKKSGKWRLLIDFRVLNKL [MAP2] |  |  |  |  | effect on in vitro FIV infection [5]: significantly inhibited; also recorded: inhibition |
| DQEQNTAEVKLYLK [MAP1b, palmitated multiple antigenic peptide with FIV p24-peptide Fp14-1 alone] |  |  |  |  | effect on in vitro FIV infection [5]: no significant in vitro effect |
| concanavalin A [ConA, reference compound] |  |  |  |  | average RT titer ([5]; FIV-enhancing mitogen control, 1:10000 dilution): 54,634 cpm/mL |
| RAEQASQEVKNWMTE [Hp15-1] | not | robust cytotoxin levels and responder frequencies |  | High Cytotoxins (The cytotoxin result is considered high when four or five subjects express one or more cytotoxins in the CD8^+ T cells) | CD8^+ T-cell cytotoxins (8C) [3]: +; HIV+ subjects whose CD8+ T cells responded with one or more cytotoxins [3]: five; CD4^+ T-cell cytotoxins (4C) [4]: + |
